Data as given in ChEMBL document CHEMBL3612065, “Development of N-hydroxybenzamide derivatives with indole-containing cap group as histone deacetylases inhibitors” (Bioorg Med Chem, 2015).

Experiments:
[1] = Inhibition of Class 1 histone deacetylase isolated from human HeLa cell nuclear extracts using Boc-Lys (acetyl)-AMC as substrate preincubated for 10 mins followed by substrate addition measured after 30 mins by fluorescence assay; assay type: cell-based
PC-3 [2] = assay: Inhibition of Class 1 histone deacetylase in human PC3 cells using Boc-Lys (acetyl)-AMC as substrate preincubated for 3 hrs followed by substrate addition measured after 3 hrs by fluorescence assay; assay type: cell-based
HeLa [3] = assay: Ratio of IC50 for Class 1 histone deacetylase in human PC3 cells to IC50 for Class 1 histone deacetylase isolated from human HeLa cell nuclear extracts
HEL = assay: Cytotoxicity against human HEL cells assessed as growth inhibition after 48 hrs by MTT assay; assay type: functional, cell-based
PC-3 [4] = assay: Cytotoxicity against human PC3 cells assessed as growth inhibition after 48 hrs by MTT assay; assay type: functional, cell-based; conditions: PC-3, 48 h
K562 = assay: Cytotoxicity against human K562 cells assessed as growth inhibition after 48 hrs by MTT assay; assay type: functional, cell-based; conditions: K562, 48 h
[5] = Cytotoxicity against human U266 cells assessed as growth inhibition after 48 hrs by MTT assay; assay type: functional, cell-based; conditions: U-266, 48 h
U-937 = assay: Cytotoxicity against human U937 cells assessed as growth inhibition after 48 hrs by MTT assay; assay type: functional, cell-based; conditions: U-937, 48 h
PC-3 [6] = assay: Inhibition of Class 2a histone deacetylase in human PC3 cells using Boc-Lys (triflouroacetyl)-AMC as substrate preincubated for 3 hrs followed by substrate addition measured after 3 hrs by fluorescence assay; assay type: cell-based
HCT-116 = assay: Cytotoxicity against human HCT116 cells assessed as growth inhibition after 48 hrs by MTT assay; assay type: functional, cell-based; conditions: HCT-116, 48 h
PC-3 [7] = assay: Selectivity ratio of IC50 for Class 2a histone deacetylase in human PC3 to IC50 for Class 1 histone deacetylase in human PC3 cells; assay type: cell-based
HeLa [8] = assay: Potency index, ratio of SAHA IC50 to compound IC50 for Class 1 histone deacetylase isolated from human HeLa cell nuclear extracts; assay type: cell-based

IC50 [1] | Compound | further results
98.7 nM | O=C(CCCc1ccccc1)N[C@@H](Cc1c[nH]c2ccccc12)C(=O)Nc1ccc(C(=O)NO)cc1 | –
1090 nM | CCS(=O)(=O)N[C@@H](Cc1c[nH]c2ccccc12)C(=O)Nc1ccc(C(=O)NO)cc1 | –
31 nM | O=C(NO)c1ccc(NC(=O)[C@H](Cc2c[nH]c3ccccc23)NC(=O)c2ccco2)cc1 | IC50 (PC-3 [2]): 333 nM; Ratio IC50 (HeLa [3]): 11; IC50 (HEL): 3360 nM; IC50 (PC-3 [4]): 3340 nM; IC50 (K562): 4560 nM; IC50 [5]: 3760 nM; IC50 (U-937): 3430 nM; IC50 (PC-3 [6]): 665 nM; IC50 (HCT-116): 2770 nM; Ratio IC50 (PC-3 [7]): 2
47.5 nM | O=C(Cc1ccccc1)N[C@@H](Cc1c[nH]c2ccccc12)C(=O)Nc1ccc(C(=O)NO)cc1 | –
100 nM | O=C(NO)c1ccc(NC(=O)[C@H](Cc2c[nH]c3ccccc23)NC(=O)c2ccncc2)cc1 | –
425 nM | CC(=O)N[C@@H](Cc1c[nH]c2ccccc12)C(=O)Nc1ccc(C(=O)NO)cc1 | –
59.7 nM | O=C(CCc1ccccc1)N[C@@H](Cc1c[nH]c2ccccc12)C(=O)Nc1ccc(C(=O)NO)cc1 | –
8.6 nM | COc1ccc(C(=O)N[C@@H](Cc2c[nH]c3ccccc23)C(=O)Nc2ccc(C(=O)NO)cc2)cc1 | –
192 nM | COc1cc(CCC(=O)Nc2ccc(C(=O)NO)cc2)ccc1OCc1cccs1 | –
43.1 nM | O=C(NO)c1ccc(NC(=O)[C@H](Cc2c[nH]c3ccccc23)NC(=O)c2cccc(Cl)c2)cc1 | –

Second part, the molecule before the results:

Compound | IC50 [1] | further results
CC(C)(C)OC(=O)N[C@H](C(=O)Nc1ccc(C(=O)NO)cc1)c1ccccc1 | 123 nM | –
Cc1ccc(C(=O)N[C@@H](Cc2c[nH]c3ccccc23)C(=O)Nc2ccc(C(=O)NO)cc2)cc1 | 13 nM | –
CC(C)(C)OC(=O)N[C@@H](Cc1c[nH]c2ccccc12)C(=O)Nc1ccc(C(=O)NO)cc1 | 280 nM | –
O=C(NO)c1ccc(NC(=O)[C@H](Cc2c[nH]c3ccccc23)NC(=O)c2ccccc2Cl)cc1 | 157 nM | –
O=C(NO)c1ccc(NC(=O)[C@H](Cc2c[nH]c3ccccc23)NC(=O)c2cc(Cl)cc(Cl)c2)cc1 | 41.2 nM | –
CC(C)=CC(=O)N[C@@H](Cc1c[nH]c2ccccc12)C(=O)Nc1ccc(C(=O)NO)cc1 | 139 nM | –
CCC(CC)C(=O)N[C@@H](Cc1c[nH]c2ccccc12)C(=O)Nc1ccc(C(=O)NO)cc1 | 333 nM | –
O=C(NO)c1ccc(NC(=O)[C@H](Cc2c[nH]c3ccccc23)NS(=O)(=O)c2ccccc2)cc1 | 178 nM | –
O=C(NO)c1ccc(NC(=O)[C@H](Cc2c[nH]c3ccccc23)NC(=O)c2ccc(Cl)cc2Cl)cc1 | 23.3 nM | –
CC(C)C(=O)N[C@@H](Cc1c[nH]c2ccccc12)C(=O)Nc1ccc(C(=O)NO)cc1 | 526 nM | –
O=C(NO)c1ccc(NC(=O)[C@H](Cc2c[nH]c3ccccc23)NC(=O)c2ccc(F)cc2)cc1 | 2.4 nM | –
CCCC(CCC)C(=O)N[C@@H](Cc1c[nH]c2ccccc12)C(=O)Nc1ccc(C(=O)NO)cc1 | 212 nM | –
O=C(NO)c1ccc(NC(=O)[C@H](Cc2c[nH]c3ccccc23)NC(=O)c2ccc(Br)cc2)cc1 | 3.7 nM | –
O=C(NO)c1ccc(NC(=O)[C@H](Cc2c[nH]c3ccccc23)NC(=O)c2ccc(Cl)cc2)cc1 | 1.5 nM | IC50 (PC-3 [2]): 33.2 nM; Ratio IC50 (HeLa [3]): 22; IC50 (HEL): 1970 nM; IC50 (PC-3 [4]): 740 nM; IC50 (K562): 1670 nM; IC50 [5]: 1010 nM; IC50 (U-937): 1090 nM; IC50 (PC-3 [6]): 60.1 nM; IC50 (HCT-116): 1450 nM; Ratio IC50 (HeLa [8]): 100; Ratio IC50 (PC-3 [7]): 2
Cc1ccc(S(=O)(=O)N[C@@H](Cc2c[nH]c3ccccc23)C(=O)Nc2ccc(C(=O)NO)cc2)cc1 | 196 nM | –
CN(C)c1ccc(C(=O)N[C@@H](Cc2c[nH]c3ccccc23)C(=O)Nc2ccc(C(=O)NO)cc2)cc1 | 4.7 nM | –
O=C(NO)c1ccc(NC(=O)[C@H](Cc2c[nH]c3ccccc23)NC(=O)c2ccccc2)cc1 | 23.8 nM | –
O=C(NO)c1ccc(NC(=O)[C@H](Cc2c[nH]c3ccccc23)NC(=O)c2ccc(C(F)(F)F)cc2)cc1 | 30 nM | –
O=C(NO)c1ccc(NC(=O)[C@H](Cc2c[nH]c3ccccc23)NC(=O)c2ccc3ccccc3c2)cc1 | 27 nM | –
O=C(/C=C/c1ccc(OC[C@H](Cc2c[nH]c3ccccc23)NC(=O)c2ccc(Cl)cc2)cc1)NO | 6.8 nM | –
